By IC50 is commonly meant the concentration at which inhibition is half-maximal.

The first assay has as its system human multiple myeloma cell line, OPM-2. As to the kind of experiment: Cell viability assay (OPM-2 10 FBS), CellTiter-Glo. The conditions noted are these: Homo sapiens, OPM-2, 16 h, read-out: OPM-2 10% FBS IC50 IP, OPM-2 cells, 10% FBS, 16 h, CellTiter-Glo. The class given is cell-based. The protocol:
Cell viability assay (OPM-2 10 FBS)
The human multiple myeloma cell line, OPM-2, was cultured in complete growth medium containing RPMI 1640 and 10% fetal bovine serum (FBS). Cells were seeded into 384-well plates at 3000 cells/well density in complete growth medium containing 10% FBS, and incubated for 16 h with serially diluted test compounds in a 37° C. incubator with 5% CO2. Cell viability was tested using CellTiter-Glo® assay (Promega, Madison, Wis.) according to the manufacturer recommendations. Luminescence was determined using an EnVision® Multilabel plate reader 25 min after the addition of detection reagent. IC50 values were then calculated with Xlfit using a logistical 4-parameter fit model in GraphPad Prism (GraphPad Software, San Diego, Calif.) or in Genedata Screener® (Genedata, Basel, Switzerland).
Regarding `COC(=O)[C@H](NC(=O)C[C@]1(OC)/C=C/C[C@H](C)[C@@H](C)S(=O)(=O)NC(=O)c2ccc3c(c2)N(C[C@@H]2CC[C@H]21)C[C@@]1(CCCc2cc(Cl)ccc21)CO3)[C@@H](C)O` [Example 100581, methyl N-(((1S,3′R,6′R,7′S,8′E,11′S,12′R)-6-chloro-7′-methoxy-11′,12′-dimethyl-13′,13′-dioxido-15′-oxo-3,4-dihydro-2H-spiro[naphthalene-1,22′-[20]oxa[13]thia[1,14]diazatetracyclo [14.7.2.0~3,6~.0~19,24~]pentacosa[8,16,18,24]tetraen]-7′-yl)acetyl)-D-allothreoninate], the 50% inhibitory concentration (IC50) was determined as 1540 nM. `C[C@@H]1[C@@H](C)C/C=C/[C@](O)(c2ccc(F)nc2)[C@@H]2CC[C@H]2CN2C[C@@]3(CCCc4cc(Cl)ccc43)COc3ccc(cc32)C(=O)NS1(=O)=O` [Example 100420, (1S,3′R,6′R,7′R,8′E,11′S,12′R)-6-chloro-7′-(6-fluoro-3-pyridinyl)-7′-hydroxy-11′,12′-dimethyl-3,4-dihydro-2H,15′H-spiro[naphthalene-1,22′-[20]oxa[13]thia[1,14]diazatetracyclo [14.7.2.0~3,6~.0~19,24~]pentacosa[8,16,18,24]tetraen]-15′-one 13′,13′-dioxide]: the IC50 worked out at 161 nM.

The assay is the same for the next values; noted with them: Homo sapiens, OPM-2, 16 h, read-out: OPM-2 10% FBS IC50 IP, OPM-2 cells, 10% FBS, 16 h incubation.
As to `CCO[C@]1(CN2CCN(C3COC3)CC2)/C=C/C[C@H](C)[C@@H](CCOC)S(=O)(=O)NC(=O)c2ccc3c(c2)N(C[C@@H]2CC[C@H]21)C[C@@]1(CCCc2cc(Cl)ccc21)CO3` [Example 14, (1S,3′R,6′R,7′R,8′E,11′S,12′R)-6-chloro-7′-ethoxy-12′-(2-methoxyethyl)-11′-methyl-7′-((4-(3-oxetanyl)-1-piperazinyl)methyl)-3,4-dihydro-2H,15′H-spiro[naphthalene-1,22′-[20]oxa[13]thia[1,14]diazatetracyclo[14.7.2.0-3,6˜.0˜19,24˜]pentacosa[8,16,18,24]tetraen]-15′-one 13′,13′-dioxide], the IC50 was 59 nM. Take `CC(C)N(CCO)C[C@]1(O)/C=C/C[C@H](C)[C@@H](C)S(=O)(=O)NC(=O)c2ccc3c(c2)N(C[C@@H]2CC[C@H]21)C[C@@]1(CCCc2cc(Cl)ccc21)CO3` [Example 126, (1 S,3′R,6′R,7′S,8′E,11′S,12′R)-6-chloro-7′-hydroxy-7′-(((2-hydroxyethyl)(1-methylethyl)amino)methyl)-11′,12′-dimethyl-3,4-dihydro-2H, 15′H-spiro[naphthalene-1,22′-[20]oxa[13]thia[1,14]diazatetracyclo[14.7.2.0-3,6˜.0˜19,24˜]pentacosa[8,16,18,24]tetraen]-15′-one 13′,13′-dioxide]: the IC50 was 900 nM. Regarding `CO[C@]1(CN2CCN(CC(F)(F)F)CC2)/C=C/C[C@H](C)[C@@H](C)S(=O)(=O)NC(=O)c2ccc3c(c2)N(C[C@@H]2CC[C@H]21)C[C@@]1(CCCc2cc(Cl)ccc21)CO3` [Example 93, (1S,3′R,6′R,7′R,8′E,11′S,12′R)-6-chloro-7′-methoxy-11′,12′-dimethyl-7′-((4-(2,2,2-trifluoroethyl)-1-piperazinyl)methyl)-3,4-dihydro-2H,15′H-spiro[naphthalene-1,22′-[20]oxa[13]thia[1,14]diazatetracyclo [14.7.2.0~3,6~.0~19,24~]pentacosa[8,16,18,24]tetraen]-15′-one 13′,13′-dioxide], the IC50 amounted to 924 nM.

As for `CO[C@@]1(CN2CCN(CC(=O)O)CC2)/C=C/C[C@H](C)[C@@H](C)S(=O)(=O)NC(=O)c2ccc3c(c2)N(C[C@@H]2CC[C@H]21)C[C@@]1(CCCc2cc(Cl)ccc21)CO3` [Example 270, (4-(((1S,3′R,6′R,7′S,8′E,11′S,12′R)-6-CHLORO-7′-METHOXY-11′,12′-DIMETHYL-13′,13′-DIOXIDO-15′-OXO-3,4-DIHYDRO-2H-SPIRO[NAPHTHALENE-1,22′-[20]OXA[13]THIA[1,14]DIAZATETRACYCLO[14.7.2.0-3,6˜.0˜19,24˜]PENT ACOSA[8,16,18,24]TETRAEN]-7′-YL)METHYL)-1-PIPERAZINYL)ACETIC ACID], the IC50 amounted to 4860 nM. As for `CO[C@@]1(CN2CCN(C3CCOCC3)CC2)/C=C/C[C@H](C)[C@@H](C)S(=O)(=O)NC(=O)c2ccc3c(c2)N(C[C@@H]2CC[C@H]21)C[C@@]1(CCCc2cc(Cl)ccc21)CO3` [Example 262, (1S,3′R,6′R,7′S,8′E,11′S,12′R)-6-chloro-7′-methoxy-11′,12′-dimethyl-7′-((4-(tetrahydro-2H-pyran-4-yl)-1-piperazinyl)methyl)-3,4-dihydro-2H,15′H-spiro[naphthalene-1,22′-[20]oxa[13]thia[1,14]diazatetracyclo [14.7.2.0~3,6~.0~19,24~]pentacosa[8,16,18,24]tetraen]-15′-one 13′,13′-dioxide], the IC50 was 89 nM.

Staying with this assay, now noted: read-out: OPM-2 10% FBS IC50 IP; OPM-2 cells, 10% FBS, 16 h, CellTiter-Glo.
`C[C@@H]1[C@@H](C)C/C=C/[C@@](O)(C#C[Si](C)(C)C)[C@@H]2CC[C@H]2CN2C[C@@]3(CCCc4cc(Cl)ccc43)COc3ccc(cc32)C(=O)NS1(=O)=O` [Example 100243, (1S,3′R,6′R,7′S,8′E,11′S,12′R)-6-chloro-7′-hydroxy-11′,12′-dimethyl-7′-((trimethylsilyl)ethynyl)-3,4-dihydro-2H,15′H-spiro[naphthalene-1,22′-[20]oxa[13]thia[1,14]diazatetracyclo [14.7.2.0~3,6~.0~19,24~]pentacosa[8,16,18,24]tetraen]-15′-one 13′,13′-dioxide]: the IC50 turned out to be 8670 nM. Take `CO[C@@]1(C#CCCN2CCS(=O)(=O)CC2)/C=C/C[C@H](C)[C@@H](C)S(=O)(=O)NC(=O)c2ccc3c(c2)N(C[C@@H]2CC[C@H]21)C[C@@]1(CCCc2cc(Cl)ccc21)CO3` [Example 100456, (1S,3′R,6′R,7′S,8′E,11′S,12′R)-6-chloro-7′-(4-(1,1-dioxido-4-thiomorpholinyl)-1-butyn-1-yl)-7′-methoxy-11′,12′-dimethyl-3,4-dihydro-2H,15′H-spiro[naphthalene-1,22′-[20]oxa[13]thia[1,14]diazatetracyclo [14.7.2.0~3,6~.0~19,24~]pentacosa[8,16,18,24]tetraen]-15′-one 13′,13′-dioxide]: the IC50 came out at 1230 nM. On the same count and under the same terms, for `CO[C@]1(c2cccnc2F)/C=C/C[C@H](C)[C@@H](C)S(=O)(=O)NC(=O)c2ccc3c(c2)N(C[C@@H]2CC[C@H]21)C[C@@]1(CCCc2cc(Cl)ccc21)CO3` [Example 100324, (1S,3′R,6′R,7′R,8′E,11′S,12′R)-6-chloro-7′-(2-fluoro-3-pyridinyl)-7′-methoxy-11′,12′-dimethyl-3,4-dihydro-2H,15′H-spiro[naphthalene-1,22′-[20]oxa[13]thia[1,14]diazatetracyclo [14.7.2.0~3,6~.0~19,24~]pentacosa[8,16,18,24]tetraen]-15′-one 13′,13′-dioxide] the value was 1170 nM.

Still in this assay, the particulars now being: read-out: OPM-2 10% FBS IC50 IP; OPM-2 cells, 10% FBS, 16 h incubation.
Consider `CO[C@@]1(CN2CCN3CCN(C(C)=O)C[C@@H]3C2)/C=C/C[C@H](C)[C@@H](C)S(=O)(=O)NC(=O)c2ccc3c(c2)N(C[C@@H]2CC[C@H]21)C[C@@]1(CCCc2cc(Cl)ccc21)CO3` (single isomer, unassigned) [Example 226], for which the IC50 is 49 nM. Same read-out and setting: for `CO[C@@]1(CN2CCN3CCN(C)C[C@@H]3C2)/C=C/C[C@H](C)[C@@H](C)S(=O)(=O)NC(=O)c2ccc3c(c2)N(C[C@@H]2CC[C@H]21)C[C@@]1(CCCc2cc(Cl)ccc21)CO3` (single isomer, unassigned) [Example 217] the value was 192 nM.

Take `CO[C@@]1(CN2CCN3CCN(C(C)=O)C[C@@H]3C2)/C=C/C[C@H](C)[C@@H](C)S(=O)(=O)NC(=O)c2ccc3c(c2)N(C[C@@H]2CC[C@H]21)C[C@@]1(CCCc2cc(Cl)ccc21)CO3` [Example 214]: the IC50 worked out at 84 nM. Same read-out and setting: the figure for `COCC[C@@H]1[C@@H](C)C/C=C/[C@](CN2CCN3CCOC[C@@H]3C2)(OC)[C@@H]2CC[C@H]2CN2C[C@@]3(CCCc4cc(Cl)ccc43)COc3ccc(nc32)C(=O)NS1(=O)=O` [Example 20, (1 S,3′R,6′R,7′S,8′E,11′S, 12′R)-6-chloro-7′-((9aS)-hexahydropyrazino[2,1-c][1,4]oxazin-8(1H)-ylmethyl)-7′-methoxy-12′-(2-methoxyethyl)-11′-methyl-3,4-dihydro-2H,15′H-spiro[naphthalene-1,22′-[20]oxa[13]thia[1,14,25]triazatetracyclo[14.7.2.0-3,6˜.0˜19,24˜]pentacosa[8,16,18,24]tetraen]-15′-one 13′,13′-dioxide] is 22 nM. For `CO[C@]1(CN2CCN3CCS(=O)(=O)C[C@@H]3C2)/C=C/C[C@H](C)[C@@H](C)S(=O)(=O)NC(=O)c2ccc3c(c2)N(C[C@@H]2CC[C@H]21)C[C@@]1(CCCc2cc(Cl)ccc21)CO3` [Example 215], the IC50 amounted to 107 nM. `CCO[C@]1(CN2CCN3CCOC[C@@H]3C2)CCC[C@H](C)[C@@H](CCOC)S(=O)(=O)NC(=O)c2ccc3c(c2)N(C[C@@H]2CC[C@H]21)C[C@@]1(CCCc2ccccc21)CO3` [Example 517, (1S,3′R,6′R,7′R,11′S,12′R)-7′-ethoxy-7′-((9aS)-hexahydropyrazino[2,1-c][1,4]oxazin-8(1H)-ylmethyl)-12′-(2-methoxyethyl)-11′-methyl-3,4-dihydro-2H, 15′H-spiro[naphthalene-1,22′-[20]oxa[13]thia[1,14]diazatetracyclo[14.7.2.0-3,6˜.0˜19,24˜]pentacosa[16,18,24]trien]-15′-one 13′,13′-dioxide]: the IC50 came to 252 nM.

These data come from patent US10821115B2, “Compounds that inhibit Mcl-1 protein” (priority 2017, dated 2020).
